In PubChem BioAssay (NCI):
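Protocol summary: plate cells (96-well), add compound at 5 concentrations, incubate 48 h, interpolate endpoints linearly. GI50 marks 50% less growth. TGI marks complete inhibition of growth.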

What was measured:
Test in all cases: NCI anticancer screen, dose series, 48 h
NCI-H522 lung = tested on: NCI-H522 lung
KM12 colon = tested on: KM12 colon
SK-MEL-5 melanoma = tested on: SK-MEL-5 melanoma
786-0 renal = tested on: 786-0 renal
U251 CNS = tested on: U251 CNS
MALME-3M melanoma = tested on: MALME-3M melanoma
UACC-257 melanoma = tested on: UACC-257 melanoma
T-47D breast = tested on: T-47D breast
HS 578T breast = tested on: HS 578T breast
DU-145 prostate = tested on: DU-145 prostate

Row | SMILES | TGI (NCI-H522 lung) [µM] | TGI (KM12 colon) [µM] | TGI (SK-MEL-5 melanoma) [µM] | TGI (786-0 renal) [µM] | TGI (U251 CNS) [µM] | TGI (MALME-3M melanoma) [µM] | TGI (UACC-257 melanoma) [µM] | GI50 (NCI-H522 lung) [µM] | GI50 (KM12 colon) [µM] | GI50 (SK-MEL-5 melanoma) [µM] | GI50 (786-0 renal) [µM] | GI50 (U251 CNS) [µM] | GI50 (T-47D breast) [µM] | TGI (T-47D breast) [µM] | GI50 (HS 578T breast) [µM] | TGI (HS 578T breast) [µM] | GI50 (UACC-257 melanoma) [µM] | GI50 (MALME-3M melanoma) [µM] | GI50 (DU-145 prostate) [µM] | TGI (DU-145 prostate) [µM]
1 | CN(C)c1ccc2c(NCCCCCCNc3ccnc4cc(N(C)C)ccc34)ccnc2c1 | 25.2 | > 100 | > 100 | 45.3 | 24.3 | 12.9 | 49.9 | – | – | – | – | – | – | – | – | – | – | – | – | –
2 | O=C(NCCCCCCNC(=O)c1cccc2ccccc12)c1cccc2ccccc12 | > 100 | > 100 | > 100 | 80.7 | 53.8 | > 100 | > 100 | – | – | – | – | – | – | – | – | – | – | – | – | –
3 | C=C1C(=O)OC2CC3(C)C=CC(=O)C(=C)C3CC12 (stereo not given) | 1.69 | 5.57 | 3.48 | 3.36 | 13.5 | 4.02 | 3.1 | – | – | – | – | – | – | – | – | – | – | – | – | –
4 | O=C(CC1Sc2ccccc2NC1=O)Nc1cc(Cl)ccc1Cl (stereo not given) | – | – | > 100 | > 100 | > 100 | > 100 | > 100 | – | – | – | – | – | – | – | – | – | – | – | – | –
5 | O=C(CCn1[nH]c(=O)c(Cl)c(Cl)c1=O)NOCCCc1ccccc1 | – | > 100 | > 100 | > 100 | – | > 100 | > 100 | – | – | – | – | – | – | – | – | – | – | – | – | –
6 | COC(=O)CCC(=O)N1Cc2cc(C)ccc2N(C(=O)CCC(=O)OC)Cc2cc(C)ccc21 | > 100 | > 100 | > 100 | > 100 | > 100 | – | – | – | – | – | – | – | – | – | – | – | – | – | – | –
7 | CC1(C)CCC2(C(=O)OC3OC(CO)C(O)C(O)C3O)CC[C@]3(C)C(=CCC4C5(C)CC[C@H](OC6OC(C(=O)O)C(O)C(O)C6O)C(C)(C)C5CCC43C)C2C1 (stereo not given in full) | 9.71 | 9.47 | 1.78 | 6.19 | 2.61 | – | 15.4 | 1.72 | 2.08 | 0.929 | 1.56 | 1.06 | 1.75 | 5.98 | 1.62 | 4.51 | 4.18 | – | – | –
8 | CC(=O)[O][Pb]([O]C(C)=O)([c]1ccccc1)[c]1ccccc1 | 7.46 | > 100 | 14 | > 100 | 10 | > 100 | > 100 | 0.657 | 12.6 | 2.91 | 3.53 | 4.69 | – | – | – | – | 6.88 | > 100 | – | –
9 | CCC[CH2][Sn]([CH2]CCC)([O]C(C)=O)[O]C(C)=O | 0.324 | 3.77 | 2.4 | 2.83 | 2.09 | 2.36 | 3.26 | 0.147 | 1.66 | 1.04 | 1.48 | 0.888 | – | – | – | – | 1.39 | 0.994 | – | –
10 | CC(=O)/C(=C\c1ccco1)C(=O)Nc1ccccc1 | > 100 | > 100 | > 100 | > 100 | > 100 | > 100 | > 100 | – | – | – | – | – | – | – | – | – | – | – | – | –
11 | CC12CCC(=O)C(O1)C1C(=O)c3cc4ccccc4cc3C(=O)C12 (stereo not given) | 52.3 | 29.5 | – | 30 | 43.7 | 29.5 | 32.5 | 21.9 | 12.5 | – | 16.3 | 19 | 14.9 | 39.4 | 28.7 | 73.1 | 16.2 | 12.9 | – | –
12 | COC(=O)[C@@H]1CSC(=S)N1C(=O)C[C@H]1CC=CC[C@H]1CC(=O)Sc1ccccc1 | 18.2 | 34.1 | – | 32.3 | 32.4 | 56.7 | 35.9 | – | – | – | – | – | – | – | – | – | – | – | – | –
13 | NCC1(N2CCOCC2)C2CCCC21CO (stereo not given) | > 100 | > 100 | > 100 | > 100 | > 100 | > 100 | > 100 | – | – | – | – | – | – | – | – | – | – | – | – | –
14 | CC1CC2C(=O)NC(=O)C2c2[nH]c3ccccc3c21 (stereo not given) | > 100 | > 100 | > 100 | > 100 | > 100 | > 100 | – | – | – | – | – | – | – | – | – | – | – | – | – | –
15 | COC12C=CC(CC1)c1c(O)ccc(O)c12 (stereo not given) | 35.1 | > 100 | > 100 | > 100 | > 100 | > 100 | > 100 | – | – | – | – | – | – | – | – | – | – | – | – | –
16 | C=C1C(=O)O[C@H]2C[C@@H](C)[C@@H]3CC(=O)OC[C@@]3(C)CC12 (stereo not given in full) | 12 | 62 | > 100 | > 100 | > 100 | 35 | – | – | – | – | – | – | – | – | – | – | – | – | – | –

Row | SMILES | TGI (NCI-H522 lung) [µM] | TGI (KM12 colon) [µM] | TGI (SK-MEL-5 melanoma) [µM] | TGI (786-0 renal) [µM] | TGI (U251 CNS) [µM] | TGI (MALME-3M melanoma) [µM] | TGI (UACC-257 melanoma) [µM] | GI50 (NCI-H522 lung) [µM] | GI50 (KM12 colon) [µM] | GI50 (SK-MEL-5 melanoma) [µM] | GI50 (786-0 renal) [µM] | GI50 (U251 CNS) [µM] | GI50 (T-47D breast) [µM] | TGI (T-47D breast) [µM] | GI50 (HS 578T breast) [µM] | TGI (HS 578T breast) [µM] | GI50 (UACC-257 melanoma) [µM] | GI50 (MALME-3M melanoma) [µM] | GI50 (DU-145 prostate) [µM] | TGI (DU-145 prostate) [µM]
17 | COc1cc(Cn2cc3c(c2)-c2oncc2CC3)cc(OC)c1OC | 1.29 | – | 0.195 | > 64.6 | > 100 | 30.3 | 51.7 | 0.0398 | 0.0312 | 0.0366 | 0.109 | 0.0387 | – | – | 0.0306 | > 51.3 | 1.16 | 0.0254 | 0.0412 | > 100
18 | CCOC(=O)C=C1CCN(C(=O)c2ccccc2)CC1 | – | > 100 | > 100 | > 100 | > 100 | > 100 | > 100 | – | – | – | – | – | – | – | – | – | – | – | – | –
19 | CN1CCc2c1nc(-c1ccccc1)c1c2N(C)CC1 | – | > 100 | > 100 | > 100 | > 100 | > 100 | > 100 | – | – | – | – | – | – | – | – | – | – | – | – | –
20 | COc1cc2cc(Oc3ccc(NC(=O)Nc4ccc(Cl)c(C(F)(F)F)c4)cc3)c(C)nc2cc1OCCN1CCCCC1 | 3.26 | 3.09 | 3.04 | 3.17 | – | 3.13 | 3.46 | 1.59 | 1.64 | 1.65 | 1.64 | – | – | – | – | – | 1.79 | 1.62 | 1.53 | 2.87
21 | Cc1ccc(C(=O)Nc2ccc(S(=O)(=O)O)c3cc(S(=O)(=O)O)cc(S(=O)(=O)O)c23)cc1NC(=O)c1cccc(N)c1 | > 100 | > 100 | > 100 | > 100 | > 100 | > 100 | > 100 | – | – | – | – | – | – | > 100 | – | > 100 | – | – | – | –
22 | CC1=CC(=O)c2c(O)cccc2C1=O | 3.01 | 19.5 | 3.05 | 3.01 | 20.4 | 2.19 | 3.27 | – | – | – | – | – | – | 2.22 | – | – | – | – | – | 3.02
23 | COc1cccc(OC(=O)c2ccccc2Nc2ccnc(C(F)(F)F)c2)c1 | > 100 | – | – | 12.2 | 11 | – | 32.4 | 7.61 | – | 2.23 | 3.43 | 2.86 | 50.5 | > 100 | 4.85 | > 100 | 5.37 | – | – | –
24 | CCN1C(=O)N(CC)C2C1NN=c1s/c(=C3\C(=O)N(C(C)C)c4ccccc43)c(=O)n12 (stereo not given) | > 100 | > 100 | 2.33 | 17.7 | > 57.7 | > 100 | > 100 | 0.465 | 0.384 | 0.394 | 0.852 | 0.378 | – | – | 0.336 | 40.3 | > 37.7 | 1.18 | 0.377 | 3.13
25 | O=C1C/C(=C/c2ccc(/C=C3/CC(=O)N(c4cccc(Br)c4)C3=O)cc2)C(=O)N1c1cccc(Br)c1 | > 100 | > 100 | > 100 | > 100 | > 100 | > 100 | > 100 | – | – | – | – | – | – | – | – | – | – | – | – | –
26 | COC(=O)c1[nH]c(=S)[nH]c(=O)c1-c1ccc(Cl)cc1 | > 50 | > 50 | > 50 | > 50 | > 50 | > 50 | > 50 | – | – | – | – | – | – | – | – | – | – | – | – | –
27 | CCCC(O)[C@@H](O)c1ccc2c(c1O)C(=O)c1c(OC)cccc1C2=O (stereo not given in full) | 42.1 | > 100 | 31.2 | > 100 | > 100 | 90.3 | 68.8 | – | – | – | – | – | – | – | – | – | – | – | – | –
28 | Nc1cc(=O)[nH]c(SC2=NC(N)CC(O)C2)n1 (stereo not given) | > 100 | > 100 | > 100 | > 100 | > 100 | > 100 | > 100 | – | – | – | – | – | – | – | – | – | – | – | – | –
29 | Nc1ncnc2sc(=S)c3c(c12)CCC3 | > 100 | > 100 | 29.8 | > 100 | > 100 | > 100 | > 100 | 47.1 | 40.7 | 4.81 | 46.6 | 45.8 | – | – | 34.5 | 99.7 | > 100 | 66.4 | 19.1 | 57.4
30 | O=C(CCN1CCCC1)Nc1ccc2c(NCc3ccc(F)cc3)c3ccccc3nc2c1 | 1.75 | 1.62 | 2.76 | 1.94 | 1.88 | 2.4 | 3.54 | 0.394 | 0.431 | 1.44 | 0.55 | 0.462 | 0.768 | 3.22 | – | – | 1.74 | 1.11 | 0.368 | 1.54
31 | CN(C)CCCNC(=O)c1cc(NC(=O)CCNS(=O)(=O)c2ccc3c(c2)C(=O)c2ccccc2C3=O)cn1C | > 100 | > 100 | > 100 | > 100 | – | – | > 100 | > 100 | > 100 | > 100 | > 100 | – | > 100 | > 100 | > 100 | > 100 | 54.4 | – | – | –
